Reference: the supplement of paper PMC11061612

Experiments:
Carboplatin = compound: C1CC(C1)(C(=O)[O-])C(=O)[O-].N.N.[Pt+2] [Carboplatin]; details: max 10 µM
Summary of the method: (§1)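 Cancer cell lines were seeded into 1536-well plates in 7.5 μl medium (DMEM/F12 or RPMI, 10% FBS), held 24 hours at 37°C and 5% CO2, and dosed for 72 hours with final DMSO typically 0.2%. Luminescence from CellTiter-Glo 2.0, scaled between blank-well and DMSO-well means, served as viability. The single-agent IC50 was obtained from dose-response fits with a non-linear mixed effects model, each fit being a two-parameter logistic curve.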

AZD5363 = compound: C1CN(CCC1(C(=O)N[C@@H](CCO)C2=CC=C(C=C2)Cl)N)C3=NC=NC4=C3C=CN4 [AZD5363]; details: max 10 µM
Summary of the method: as §1

AZD1775 = compound: C=CCn1c(=O)c2cnc(Nc3ccc(N4CCN(C)CC4)cc3)nc2n1-c1cccc(C(C)(C)O)n1 [AZD1775]; details: max 3 µM
Summary of the method: as §1

Trametinib = compound: CC(=O)Nc1cccc(-n2c(=O)n(C3CC3)c(=O)c3c(Nc4ccc(I)cc4F)n(C)c(=O)c(C)c32)c1 [Trametinib]; details: max 1 µM
Summary of the method: as §1

Paclitaxel = compound: CC(=O)O[C@H]1C(=O)[C@@]2(C)[C@H]([C@H](OC(=O)c3ccccc3)[C@]3(O)C[C@H](OC(=O)[C@H](O)[C@@H](NC(=O)c4ccccc4)c4ccccc4)C(C)=C1C3(C)C)[C@]1(OC(C)=O)CO[C@@H]1C[C@@H]2O [Paclitaxel]; details: max 3 µM
Summary of the method: as §1

Palbociclib = compound: CC(=O)c1c(C)c2cnc(Nc3ccc(N4CCNCC4)cn3)nc2n(C2CCCC2)c1=O [Palbociclib]; details: max 10 µM
Summary of the method: as §1

AZD1390 = compound: CC(C)n1c(=O)n(C)c2cnc3cc(F)c(-c4ccc(OCCCN5CCCCC5)nc4)cc3c21 [AZD1390]; details: max 0.3 µM
Summary of the method: as §1

Venetoclax = compound: CC1(C)CCC(CN2CCN(c3ccc(C(=O)NS(=O)(=O)c4ccc(NCC5CCOCC5)c([N+](=O)[O-])c4)c(Oc4cnc5[nH]ccc5c4)c3)CC2)=C(c2ccc(Cl)cc2)C1 [Venetoclax]; details: max 1 µM
Summary of the method: as §1

Dasatinib = compound: CC1=C(C(=CC=C1)Cl)NC(=O)C2=CN=C(S2)NC3=CC(=NC(=N3)C)N4CCN(CC4)CCO [Dasatinib]; details: max 2 µM
Summary of the method: as §1

SG3199 = compound: CC1=CN2[C@@H](C1)C=NC3=CC(=C(C=C3C2=O)OC)OCCCCCOC4=C(C=C5C(=C4)N=C[C@@H]6CC(=CN6C5=O)C)OC [SG3199]; details: max 0.001 µM
Summary of the method: as §1

AZD2811 = compound: CCN(CCO)CCCOc1ccc2c(Nc3cc(CC(=O)Nc4cccc(F)c4)[nH]n3)ncnc2c1 [AZD2811]; details: max 1 µM
Summary of the method: as §1

SN-38 = compound: CCc1c2c(nc3ccc(O)cc13)-c1cc3c(c(=O)n1C2)COC(=O)[C@]3(O)CC [SN-38]; details: max 0.3 µM
Summary of the method: as §1

AZD0156 = compound: CN(C)CCCOc1ccc(-c2ccc3ncc4c(c3c2)n(C2CCOCC2)c(=O)n4C)cn1 [AZD0156]; details: max 3 µM
Summary of the method: as §1

AZD4320 = compound: CN(CC[C@H](CSC1=CC=CC=C1)NC2=C(C=C(C=C2)S(=O)(=O)NC(=O)C3=CC=C(C=C3)N4CCC(CC4)[C@H](C5=CC=CC=C5C6=CC=C(C=C6)Cl)O)S(=O)(=O)C(F)(F)F)CCO [AZD4320]; details: max 1 µM
Summary of the method: as §1

Alisertib = compound: COc1cc(Nc2ncc3c(n2)-c2ccc(Cl)cc2C(c2c(F)cccc2OC)=NC3)ccc1C(=O)O [Alisertib]; details: max 10 µM
Summary of the method: as §1

Etoposide = compound: COc1cc([C@@H]2c3cc4c(cc3[C@@H](O[C@@H]3O[C@@H]5CO[C@@H](C)O[C@H]5[C@H](O)[C@H]3O)[C@H]3COC(=O)[C@H]23)OCO4)cc(OC)c1O [Etoposide]; details: max 10 µM
Summary of the method: as §1

Gefitinib = compound: COc1cc2ncnc(Nc3ccc(F)c(Cl)c3)c2cc1OCCCN1CCOCC1 [Gefitinib]; details: max 10 µM
Summary of the method: as §1

Prexasertib = compound: COc1cccc(OCCCN)c1-c1cc(Nc2cnc(C#N)cn2)n[nH]1 [Prexasertib]; details: max 1 µM
Summary of the method: as §1

Doxorubicin = compound: COc1cccc2c1C(=O)c1c(O)c3c(c(O)c1C2=O)C[C@@](O)(C(=O)CO)C[C@@H]3O[C@H]1C[C@H](N)[C@H](O)[C@H](C)O1 [Doxorubicin]; details: max 1 µM
Summary of the method: as §1

AZD5153 = compound: COc1nnc2ccc(N3CCC(c4ccc(OCCN5CCN(C)C(=O)[C@H]5C)cc4)CC3)nn12 [AZD5153]; details: max 1 µM
Summary of the method: as §1

Lapatinib = compound: CS(=O)(=O)CCNCc1ccc(-c2ccc3ncnc(Nc4ccc(OCc5cccc(F)c5)c(Cl)c4)c3c2)o1 [Lapatinib]; details: max 10 µM
Summary of the method: as §1

AZD8186 = compound: C[C@@H](Nc1cc(F)cc(F)c1)c1cc(C(=O)N(C)C)cc2c(=O)cc(N3CCOCC3)oc12 [AZD8186]; details: max 10 µM
Summary of the method: as §1

Crizotinib = compound: C[C@@H](Oc1cc(-c2cnn(C3CCNCC3)c2)cnc1N)c1c(Cl)ccc(F)c1Cl [Crizotinib]; details: max 10 µM
Summary of the method: as §1

Savolitinib = compound: C[C@@H](c1ccc2nccn2c1)n1nnc2ncc(-c3cnn(C)c3)nc21 [Savolitinib]; details: max 1 µM
Summary of the method: as §1

AZD6738 = compound: C[C@@H]1COCCN1C2=NC(=NC(=C2)C3(CC3)[S@](=N)(=O)C)C4=C5C=CNC5=NC=C4 [AZD6738]; details: max 10 µM
Summary of the method: as §1

AZD5991 = compound: Cc1c2c(nn1C)CSCc1cc(n(C)n1)CSc1cc(c3ccccc3c1)OCCCc1c(C(=O)O)n(C)c3c-2c(Cl)ccc13 [AZD5991]; details: max 1 µM
Summary of the method: as §1

AZD7648 = compound: Cc1cc2ncnn2cc1Nc1ncc2c(n1)n(C1CCOCC1)c(=O)n2C [AZD7648]; details: max 10 µM
Summary of the method: as §1

Taselisib = compound: Cc1nc(-c2cn3c(n2)-c2ccc(-c4cnn(C(C)(C)C(N)=O)c4)cc2OCC3)n(C(C)C)n1 [Taselisib]; details: max 10 µM
Summary of the method: as §1

Selumetinib = compound: Cn1cnc2c(F)c(Nc3ccc(Br)cc3Cl)c(C(=O)NOCCO)cc21 [Selumetinib]; details: max 10 µM
Summary of the method: as §1

SRA737 = compound: N#Cc1cnc(Nc2cc(NC[C@H]3CNCCO3)c(C(F)(F)F)cn2)cn1 [SRA737]; details: max 10 µM
Summary of the method: as §1

MK-2206 = compound: NC1(c2ccc(-c3nc4ccn5c(=O)[nH]nc5c4cc3-c3ccccc3)cc2)CCC1 [MK-2206]; details: max 10 µM
Summary of the method: as §1

Gemcitabine = compound: Nc1ccn([C@@H]2O[C@H](CO)[C@@H](O)C2(F)F)c(=O)n1 [Gemcitabine]; details: max 0.3 µM
Summary of the method: as §1

[1] = compound: O=C(Nc1ccc2[nH]nc(-c3ccncc3)c2c1)[C@@H]1CCN(CC(=O)N2CCN(c3ccc(-c4ncccn4)cc3)CC2)C1; details: max 5 µM
Summary of the method: as §1

Olaparib = compound: O=C(c1cc(Cc2n[nH]c(=O)c3ccccc23)ccc1F)N1CCN(C(=O)C2CC2)CC1 [Olaparib]; details: max 10 µM
Summary of the method: as §1

5-Fluorouracil = compound: O=c1[nH]cc(F)c(=O)[nH]1 [5-Fluorouracil]; details: max 20 µM
Summary of the method: as §1

Row | Cell Line | IC50, cell viability 72 h (Carboplatin) [nM] | IC50, cell viability 72 h (AZD5363) [nM] | IC50, cell viability 72 h (AZD1775) [nM] | IC50, cell viability 72 h (Trametinib) [nM] | IC50, cell viability 72 h (Paclitaxel) [nM] | IC50, cell viability 72 h (Palbociclib) [nM] | IC50, cell viability 72 h (AZD1390) [nM] | IC50, cell viability 72 h (Venetoclax) [nM] | IC50, cell viability 72 h (Dasatinib) [nM] | IC50, cell viability 72 h (SG3199) [nM] | IC50, cell viability 72 h (AZD2811) [nM] | IC50, cell viability 72 h (SN-38) [nM] | IC50, cell viability 72 h (AZD0156) [nM] | IC50, cell viability 72 h (AZD4320) [nM] | IC50, cell viability 72 h (Alisertib) [nM] | IC50, cell viability 72 h (Etoposide) [nM] | IC50, cell viability 72 h (Gefitinib) [nM] | IC50, cell viability 72 h (Prexasertib) [nM] | IC50, cell viability 72 h (Doxorubicin) [nM] | IC50, cell viability 72 h (AZD5153) [nM] | IC50, cell viability 72 h (Lapatinib) [nM] | IC50, cell viability 72 h (AZD8186) [nM] | IC50, cell viability 72 h (Crizotinib) [nM] | IC50, cell viability 72 h (Savolitinib) [nM] | IC50, cell viability 72 h (AZD6738) [nM] | IC50, cell viability 72 h (AZD5991) [nM] | IC50, cell viability 72 h (AZD7648) [nM] | IC50, cell viability 72 h (Taselisib) [nM] | IC50, cell viability 72 h (Selumetinib) [nM] | IC50, cell viability 72 h (SRA737) [nM] | IC50, cell viability 72 h (MK-2206) [nM] | IC50, cell viability 72 h (Gemcitabine) [nM] | IC50, cell viability 72 h [1] [nM] | IC50, cell viability 72 h (Olaparib) [nM] | IC50, cell viability 72 h (5-Fluorouracil) [nM]
1 | NCI-H1792 (Lung Adenocarcinoma) | > 10000 | > 10000 | 730 | 83.5 | 5.92 | > 10000 | > 300 | > 1000 | 1550 | > 1 | > 1000 | 159 | > 3000 | > 1000 | 5110 | 7110 | > 10000 | 97.9 | 558 | 561 | > 10000 | > 10000 | 6070 | > 1000 | 4810 | > 1000 | > 10000 | 4880 | > 10000 | > 10000 | > 10000 | 34.5 | > 5000 | > 10000 | 7720
2 | NCI-H2818 (Mesothelioma) | > 10000 | > 10000 | > 3000 | > 1000 | 745 | > 10000 | > 300 | > 1000 | > 2000 | > 1 | > 1000 | > 300 | > 3000 | > 1000 | > 10000 | > 10000 | > 10000 | > 1000 | > 1000 | > 1000 | > 10000 | > 10000 | > 10000 | > 1000 | > 10000 | > 1000 | > 10000 | > 10000 | > 10000 | > 10000 | > 10000 | > 300 | > 5000 | > 10000 | > 20000
3 | SR (Other Blood Carcinomas) | > 10000 | > 10000 | 187 | > 1000 | 5.75 | 3000 | > 300 | 722 | > 2000 | > 1 | 43.5 | 3.3 | > 3000 | 677 | 50.3 | 126 | > 10000 | 5.88 | 26.1 | 86.4 | > 10000 | > 10000 | 251 | > 1000 | 1750 | 352 | > 10000 | > 10000 | > 10000 | 1400 | > 10000 | 45.3 | > 5000 | > 10000 | 4320
4 | SW837 (Colorectal Carcinoma) | > 10000 | > 10000 | 2240 | 300 | 582 | > 10000 | > 300 | > 1000 | > 2000 | > 1 | > 1000 | > 300 | > 3000 | > 1000 | > 10000 | > 10000 | > 10000 | 186 | > 1000 | 717 | > 10000 | > 10000 | > 10000 | > 1000 | > 10000 | > 1000 | > 10000 | > 10000 | 9890 | > 10000 | > 10000 | > 300 | > 5000 | > 10000 | > 20000
5 | SW1417 (Colorectal Carcinoma) | > 10000 | > 10000 | > 3000 | 51.5 | 422 | > 10000 | > 300 | > 1000 | > 2000 | > 1 | > 1000 | 182 | > 3000 | > 1000 | > 10000 | > 10000 | > 10000 | 567 | > 1000 | > 1000 | > 10000 | > 10000 | > 10000 | > 1000 | > 10000 | > 1000 | > 10000 | > 10000 | 4870 | > 10000 | > 10000 | > 300 | 1350 | > 10000 | > 20000
